Measurements: PubChem BioAssay (NCI)
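Dose response: 5 concentrations. Exposure: 48 h. Format: 96-well plates. Endpoint: linear interpolation; highest concentration if not reached. GI50 marks 50% less growth. TGI: total growth inhibition.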

Experiments:
Test in all cases: NCI anticancer screen, dose series, 48 h
[1] = system: SK-OV-3 ovarian
[2] = system: UACC-62 melanoma
[3] = system: A498 renal
[4] = system: OVCAR-5 ovarian
[5] = system: TK-10 renal
[6] = system: MCF7 breast
[7] = system: SN12C renal
[8] = system: MDA-MB-231 breast
[9] = system: SF-295 CNS
[10] = system: SW-620 colon

SMILES: c1ccc(CN=C(NCc2ccccc2)NCc2ccccc2)cc1
- GI50 [1]: 10.9 µM
- TGI [1]: 23.6 µM
- GI50 [2]: 10.1 µM
- TGI [2]: 22.6 µM
- GI50 [3]: 2.2 µM
- TGI [3]: 14.7 µM
- GI50 [4]: 10.1 µM
- TGI [4]: 24.5 µM
- GI50 [5]: 10.7 µM
- TGI [5]: 27.3 µM
- GI50 [6]: 6.37 µM
- TGI [6]: 19.6 µM
- GI50 [7]: 6.92 µM
- TGI [7]: 24.1 µM
- GI50 [8]: 10.6 µM
- TGI [8]: 25.4 µM
- GI50 [9]: 1.21 µM
- TGI [9]: 6.49 µM
- GI50 [10]: 4.42 µM
- TGI [10]: 17.9 µM

SMILES: COc1ccc(-c2c(-c3cc(OC)c(OC)c(OC)c3)noc2N)cc1
- GI50 [1]: < 0.011 µM
- TGI [1]: 16.5 µM
- GI50 [2]: < 0.01 µM
- TGI [2]: > 65.2 µM
- GI50 [3]: < 0.01 µM
- TGI [3]: 4.37 µM
- GI50 [4]: 0.0441 µM
- TGI [4]: > 70 µM
- GI50 [5]: 0.461 µM
- TGI [5]: > 56.5 µM
- GI50 [6]: < 0.01 µM
- TGI [6]: 19.1 µM
- GI50 [7]: 0.0374 µM
- TGI [7]: > 69.8 µM
- GI50 [8]: 0.06 µM
- TGI [8]: 90.1 µM
- GI50 [9]: < 0.01 µM
- TGI [9]: > 100 µM
- GI50 [10]: < 0.01 µM
- TGI [10]: > 100 µM

SMILES: C=C1C(=O)O[C@@H]2C1C[C@@H](O)C(=C)CC/C=C(\C)CCC[C@H](C)[C@H]2OC(C)=O (stereo not given in full)
- GI50 [1]: 14.8 µM
- TGI [1]: 32.5 µM
- GI50 [2]: 7.45 µM
- TGI [2]: 21.7 µM
- GI50 [3]: 15.3 µM
- TGI [3]: 29.4 µM
- GI50 [4]: 10.3 µM
- TGI [4]: 22.4 µM
- GI50 [5]: 2.11 µM
- TGI [5]: 5.57 µM
- GI50 [6]: 3.04 µM
- TGI [6]: 18.5 µM
- GI50 [7]: 3.5 µM
- TGI [7]: 15.3 µM
- GI50 [8]: 4.07 µM
- TGI [8]: 18.6 µM
- GI50 [9]: 17.1 µM
- TGI [9]: 31.9 µM
- GI50 [10]: 3.81 µM
- TGI [10]: 13.6 µM

SMILES: CC(=O)[C@@]1(O)[C@H](C)C[C@H]2[C@@H]3C=C(C)C4=Cc5c(cnn5-c5ccccc5)C[C@]4(C)[C@H]3[C@@H](O)C[C@@]21C
- GI50 [1]: 0.76 µM
- TGI [1]: 10.5 µM
- GI50 [2]: 2.24 µM
- TGI [2]: 5.76 µM
- GI50 [3]: 3.45 µM
- TGI [3]: 14.7 µM
- GI50 [4]: 1.52 µM
- TGI [4]: 5.76 µM
- GI50 [5]: 1.97 µM
- TGI [5]: 6.08 µM
- GI50 [6]: 1.97 µM
- TGI [6]: 11 µM
- GI50 [7]: 1.4 µM
- TGI [7]: 12.4 µM
- GI50 [8]: 2.04 µM
- TGI [8]: 5.4 µM
- GI50 [9]: 1.73 µM
- TGI [9]: 3.53 µM
- GI50 [10]: 1.91 µM
- TGI [10]: 4.27 µM

SMILES: O=c1oc2ccc(-n3c(=O)c4ccccc4c4ccccc4c3=O)cc2c2ccccc12
- TGI [1]: > 100 µM
- TGI [2]: > 100 µM
- TGI [3]: > 100 µM
- TGI [4]: > 100 µM
- TGI [5]: > 100 µM
- TGI [6]: > 100 µM
- TGI [7]: > 100 µM
- TGI [8]: > 100 µM
- TGI [9]: > 100 µM
- TGI [10]: > 100 µM

SMILES: Cc1cc(Oc2ccc3nc(COc4ccc(CC5SC(=O)NC5=O)cc4)n(C)c3c2)cc(C)c1N (stereo not given)
- GI50 [1]: > 66.1 µM
- TGI [1]: > 100 µM
- GI50 [2]: 22.5 µM
- TGI [2]: 72.4 µM
- GI50 [3]: > 43.4 µM
- TGI [3]: > 100 µM
- GI50 [4]: > 63.7 µM
- TGI [4]: > 100 µM
- GI50 [5]: > 52.6 µM
- TGI [5]: > 91.6 µM
- GI50 [6]: 27.6 µM
- TGI [6]: 98.9 µM
- GI50 [7]: 44.1 µM
- TGI [7]: > 100 µM
- GI50 [8]: 45.4 µM
- TGI [8]: > 100 µM
- GI50 [9]: 32.5 µM
- TGI [9]: > 100 µM
- GI50 [10]: 30.6 µM
- TGI [10]: > 100 µM
